Laboratory results from US8431702B2, “Therapeutically useful substituted hydropyrido [3,2,1-ij] quinoline compounds” (Allergan, Inc., priority 2008, dated 2013).
Like-named read-outs stand apart in the source and are kept apart here.

Target: T1, human S1P3 receptor (Homo sapiens, UniProt Q99500)
T1 construct: expressed in transfected cells
Test: FLIPR calcium (Fluo-4) assay for activation or block of activation of human S1P3 receptor in T24 cells
Assay type: cell-based
Experimental: The compounds of the invention are assessed for their ability to activate or block activation of the human S1P3 receptor in T24 cells stably expressing the human S1P3 receptor using the method described in paragraph [0067] of United States Patent Application Publication No. 20070232682, which published on Oct. 4, 2007, which is hereby incorporated by reference in its entirety.
Ten thousands cells/well are plated into 384-well poly-D-lysine coated plates one day prior to use. The growth media for the S1P3 receptor expressing cell line is McCoy's 5A medium supplemented with 10% charcoal-treated fetal bovine serum (FBS), 1% antibiotic-antimycotic and 400 μg/ml geneticin. On the day of the experiment, the cells are washed twice with Hank's Balanced Salt Solution supplemented with 20 mM HEPES (HBSS/Hepes buffer). The cells are then dye loaded with 2 μM Fluo-4 diluted in the HBSS/Hepes buffer with 1.25 mM Probenecid and incubated at 37° C. for 40 minutes. Extracellular dye is removed by washing the cell plates four times prior to placing the plates in the FLIPR (Fluorometric Imaging Plate Reader, Molecular Devices). Ligands are diluted in HBSS/Hepes buffer and prepared in 384-well microplates. The positive control, Sphingosine-1-phosphate (S1P), is diluted in HBSS/Hepes buffer with 4 mg/ml fatty acid free bovine serum albumin. The FLIPR transfers 12.5 μl from the ligand microplate to the cell plate and takes fluorescent measurements for 75 seconds, taking readings every second, and then for 2.5 minutes, taking readings every 10 seconds. Compounds are tested over the concentration range of 0.61 nM to 10,000 nM. Data for calcium ion (Ca^+2) responses are obtained in arbitrary fluorescence units and not translated into Ca^+2 concentrations. IC50 values (nM) are determined through a […] analysis using the Levenburg Marquardt algorithm.

[1] = T24 cells stably expressing the human S1P3 receptor, tested over 0.61 nM to 10,000 nM
[2] = T24 cells stably expressing the human S1P3 receptor, tested over 0.61 nM to 10,000 nM, read-out: S1P3 IC50

T1 sequence (Q99500 whole entry): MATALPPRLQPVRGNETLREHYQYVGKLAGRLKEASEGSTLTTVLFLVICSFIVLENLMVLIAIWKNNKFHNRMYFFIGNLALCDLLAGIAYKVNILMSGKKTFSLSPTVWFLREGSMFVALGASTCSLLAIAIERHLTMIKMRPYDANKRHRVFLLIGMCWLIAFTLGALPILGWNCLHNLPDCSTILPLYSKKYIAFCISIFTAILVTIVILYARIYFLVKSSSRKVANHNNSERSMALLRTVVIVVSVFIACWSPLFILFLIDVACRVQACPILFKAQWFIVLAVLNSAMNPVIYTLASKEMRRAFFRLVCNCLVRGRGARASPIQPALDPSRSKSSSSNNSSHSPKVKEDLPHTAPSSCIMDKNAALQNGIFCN

Row | Compound | IC50 [nM] | S1P3 % Inhibition [1] [%] | IC50 [2] [nM]
1 | CSC(=O)Nc1cc2c3c(c1)[C@](C)(c1ccccc1)CCN3CC[C@@]2(C)c1ccccc1 [Compound 583, S-methyl (1S,7S)-1,7-dimethyl-1,7-diphenyl-1,2,3,5,6,7-hexahydropyrido[3,2,1-ij]quinolin-9-ylcarbamothioate] | 10 | 98 | –
2 | CCCSC(=O)Nc1cc2c3c(c1)[C@@](C)(c1ccccc1)CCN3CC[C@@]2(C)c1ccccc1 [Compound 584, S-propyl (1R,7S)-1,7-dimethyl-1,7-diphenyl-1,2,3,5,6,7-hexahydropyrido[3,2,1-ij]quinolin-9-ylcarbamothioate] | 16 | 98 | –
3 | CCCSC(=O)Nc1cc2c3c(c1)[C@](C)(c1ccccc1)CCN3CC[C@@]2(C)c1ccccc1 [Compound 585, S-propyl (1S,7S)-1,7-dimethyl-1,7-diphenyl-1,2,3,5,6,7-hexahydropyrido[3,2,1-ij]quinolin-9-ylcarbamothioate] | 5 | 98 | –
4 | CSC(=O)Nc1cc2c3c(c1)[C@](C)(c1ccc(F)cc1)CCN3CC[C@@]2(C)c1ccc(F)cc1 [Compound 671, S-methyl (1S,7S)-1,7-bis(4-fluorophenyl)-1,7-dimethyl-1,2,3,5,6,7-hexahydropyrido[3,2,1-ij]quinolin-9-ylcarbamothioate] | 25 | 97 | –
5 | CCCCOC(=O)Nc1cc2c3c(c1)[C@](C)(c1ccc(F)cc1)CCN3CC[C@@]2(C)c1ccc(F)cc1 [Compound 672, butyl (1S,7S)-1,7-bis(4-fluorophenyl)-1,7-dimethyl-1,2,3,5,6,7-hexahydropyrido[3,2,1-ij]quinolin-9-ylcarbamate] | 86 | 89 | –
6 | CCCSC(=O)Nc1cc2c3c(c1)[C@](C)(c1ccc(F)cc1)CCN3CC[C@@]2(C)c1ccc(F)cc1 [Compound 673, S-propyl (1S,7S)-1,7-bis(4-fluorophenyl)-1,7-dimethyl-1,2,3,5,6,7-hexahydropyrido[3,2,1-ij]quinolin-9-ylcarbamothioate] | 62 | 97 | –
7 | COC(=O)Nc1cc2c3c(c1)[C@](C)(c1ccc(F)cc1)CCN3CC[C@@]2(C)c1ccc(F)cc1 [Compound 674, methyl (1S,7S)-1,7-bis(4-fluorophenyl)-1,7-dimethyl-1,2,3,5,6,7-hexahydropyrido[3,2,1-ij]quinolin-9-ylcarbamate] | 46 | 96 | –
8 | CSC(=O)Nc1cc2c3c(c1)C(c1ccccc1)CCN3CCC2c1ccccc1 (stereo not drawn) [Compound 699] | – | 100 | 4
9 | CCCSC(=O)Nc1cc2c3c(c1)C(c1ccccc1)CCN3CCC2c1ccccc1 (stereo not drawn) [Compound 700] | – | 100 | 7
10 | O=C(NCCCl)Nc1cc2c3c(c1)C(c1ccccc1)CCN3CCC2c1ccccc1 (stereo not drawn) [Compound 769, 1-(2-chloroethyl)-3-(1,7-diphenyl-1,2,3,5,6,7-hexahydropyrido[3,2,1-ij]quinolin-9-yl)urea] | – | 100 | –
11 | C=CCNC(=O)Nc1cc2c3c(c1)C(c1ccccc1)CCN3CCC2c1ccccc1 (stereo not drawn) [Compound 773, 1-allyl-3-(1,7-diphenyl-1,2,3,5,6,7-hexahydropyrido[3,2,1-ij]quinolin-9-yl)urea] | – | 100 | –
12 | CNC(=O)c1cc2c3c(c1)C(c1ccccc1)CCN3CCC2c1ccccc1 (stereo not drawn) [Compound 775, N-methyl-1,7-diphenyl-1,2,3,5,6,7-hexahydropyrido[3,2,1-ij]quinoline-9-carboxamide] | – | 100 | 619
13 | COC(=O)Nc1cc2c3c(c1)C(c1cccc(F)c1)CCN3CCC2c1cccc(F)c1 (stereo not drawn) [Compound 779, Methyl 1,7-bis(3-fluorophenyl)-1,2,3,5,6,7-hexahydropyrido[3,2,1-ij]quinolin-9-ylcarbamate] | – | 101 | –
14 | COC(=O)Nc1cc2c3c(c1)[C@](C)(c1ccccc1)CCN3CC[C@@]2(C)c1ccccc1 [Compound 829, methyl (1S,7S)-1,7-dimethyl-1,7-diphenyl-1,2,3,5,6,7-hexahydropyrido[3,2,1-ij]quinolin-9-ylcarbamate] | 7 | 97 | –
15 | CCOC(=O)Nc1cc2c3c(c1)[C@](C)(c1ccccc1)CCN3CC[C@@]2(C)c1ccccc1 [Compound 941, Ethyl (1S,7S)-1,7-dimethyl-1,7-diphenyl-1,2,3,5,6,7-hexahydropyrido[3,2,1-ij]quinolin-9-ylcarbamate] | 13 | 100 | –
16 | CCCOC(=O)Nc1cc2c3c(c1)[C@](C)(c1ccccc1)CCN3CC[C@@]2(C)c1ccccc1 [Compound 942, Propyl (1S,7S)-1,7-dimethyl-1,7-diphenyl-1,2,3,5,6,7-hexahydropyrido[3,2,1-ij]quinolin-9-ylcarbamate] | 72 | 100 | –
17 | CCCCOC(=O)Nc1cc2c3c(c1)[C@](C)(c1ccccc1)CCN3CC[C@@]2(C)c1ccccc1 [Compound 943, Butyl (1S,7S)-1,7-dimethyl-1,7-diphenyl-1,2,3,5,6,7-hexahydropyrido[3,2,1-ij]quinolin-9-ylcarbamate] | 75 | 100 | –
18 | C[C@@]1(c2ccccc2)CCN2CC[C@@](C)(c3ccccc3)c3cc(NC(=O)OCCF)cc1c32 [Compound 944, 2-fluoroethyl (1S,7S)-1,7-dimethyl-1,7-diphenyl-1,2,3,5,6,7-hexahydropyrido[3,2,1-ij]quinolin-9-ylcarbamate] | 27 | 100 | –
19 | C[C@@]1(c2ccccc2)CCN2CC[C@@](C)(c3ccccc3)c3cc(NC(=O)OCCCCl)cc1c32 [Compound 945, 3-chloropropyl (1S,7S)-1,7-dimethyl-1,7-diphenyl-1,2,3,5,6,7-hexahydropyrido[3,2,1-ij]quinolin-9-ylcarbamate] | 68 | 100 | –
20 | O=C(Nc1cc2c3c(c1)C(c1ccccc1)CCN3CCC2c1ccccc1)N1CCOCC1 (stereo not drawn) [Compound 983, N-(1,7-diphenyl-1,2,3,5,6,7-hexahydropyrido[3,2,1-ij]quinolin-9-yl)morpholine-4-carboxamide] | – | 100 | –
